Test results: patent US6017957A (priority 1989, dated 2000)
Like-named read-outs stand apart in the source and are kept apart here.

Experiments:
[1] = test system: NMDA-induced convulsions; assay: NMDA-induced convulsions and death (anticonvulsant activity); format: in vivo, male NIH-Swiss mice; details: for ED50: Mus musculus, ip, read-out: ED50, protection against NMDA-induced convulsions and death; for dose-response curve shape: NMDA-induced convulsions; for fold more potent than parent compound (ACPC): anticonvulsant potency in vivo; for Complete protection against NMDA-induced convulsions / Effect on convulsions induced by NMDA (125): i.p.; for Effect on convulsions induced by NMDA (125): 15 min before NMDA 125 mg/kg, ACPC 100-500, ACPCE 39-195, ACPCM 19-190 mg/kg
Experimental: (§1) Male (25-30 g) NIH-Swiss mice (Harlan Sprague-Dawley, Frederick, Md.) were group housed in 32 cm×25 cm×15 cm plastic cages (10-15/cage) with food and water freely available. Mice were injected intraperitoneally with the test substance and challenged fifteen minutes later (unless otherwise specified) with NMDA (125 mg/kg), pentylenetetrazole (PTZ) (80mg/kg), strychnine (strych.) hemisulfate (2 mg/kg, as the base), bicuculline (bicuc.) (6 mg/kg) or maximal electroshock (MES). NMDA, PTZ, and strych. hemisulfate were dissolved in distilled water. Bicuculline was dissolved in 0.01 N HC1. These compounds were injected in a volume of 0.1 ml 1-aminocyclopropanecarboxylates were dissolved in distilled water and doses ≤500 mg/kg injected in a volume of 0.1 ml; doses >500 mg/kg were injected in proportionately larger volumes. Immediately after convulsant challenge, mice were placed in 28.5 cm×17.8 cm×12 cm plastic cages (1/cage) and observed for 15 minutes. The presence or absence of convulsions and the time to the first convulsive episode (latency) were noted. MES were produced by applying a 50 mA current through alligator clips attached to the pinnae for 0.2 s.

[2] = test system: maximal electroshock seizures; assay: Maximal electroshock seizures (MES); format: in vivo, male NIH-Swiss mice; details: for effect on MES: ACPC 200-2000, ACPCM 114-571 mg/kg; for Effect on convulsions induced by MES: ACPC 200-2000, ACPCM 114-571 mg/kg i.p.
Experimental: as §1

[3] = test system: motor performance (rotarod); assay: Motor performance, rotarod; format: in vivo, NIH-Swiss mice; details: for impairment of performance in rotarod test: ACPC 100-2000, ACPCM 19-571 mg/kg, MK-801 1 mg/kg, thirty minutes; for % Impairment, Rotarod: i.p., ACPC 400-2000, ACPCM 114-571, MK-801 1 mg/kg
Source text: (§2) Evaluation of motor performance:

[4] = test system: motor performance (horizontal wire); assay: Motor performance, horizontal (hanging) wire test; format: in vivo, NIH-Swiss mice; details: for impairment of performance in hanging (horizontal) wire test: ACPC 100-2000, ACPCM 19-571 mg/kg, MK-801 1 mg/kg, thirty minutes; for % Impairment, Hanging Wire: i.p., ACPC 400-2000, ACPCM 114-571, MK-801 1 mg/kg
Source text: as §2

[5] = target: T1, strychnine-insensitive glycine receptors (NMDA receptor complex) (Rattus norvegicus, UniProt P35439); assay: Inhibition of [^3 H]glycine binding; format: male Sprague-Dawley rats (forebrain synaptic membranes); details: rat forebrain synaptic membranes, 0-4°, 60 min
T1 construct: Synaptic membranes were prepared from forebrains of adult; from tissue; host or cells: forebrain (whole brain minus cerebellum and brainstem) synaptic membranes of adult male Sprague-Dawley rats
Experimental: Membrane preparation: Synaptic membranes were prepared from forebrains of adult (250-350 g) male Sprague-Dawley rats (Taconic Farms, Germantown, N.Y.) by modification of the method of Bristow et al, (1986). In brief, forebrains (whole brain minus cerebellum and brainstem) were weighed and then disrupted for 30 s (Ultra-Turrax, Model STD) in 10 volumes of 0.32 M sucrose containing 5 mM HEPES/4.5 mM Tris pH 7.4. The homogenate was diluted to 50 volumes with this buffer and centrifuged for 10 minutes (1000×g). […]
[^3 H]Glycine binding: Immediately prior to assay, aliquots were thawed at 0-40 and "washed" 3 more times as described above. Membranes (0.1-0.3 mg prot.) were incubated for 60 minutes at 0-4° in HEPES-Tris buffer containing 1 mM MgCl2, ([^3 H]glycine (20 Ci/mmol, ISN, Irvine, Calif.), and drugs as indicated. Nonspecific binding was defined using 1 mM glycine. Incubations (1 ml) were terminated by centrifugation (Eppendorf Model 5414 Microfuge, 5 minutes) and the pellets washed superficially with 1 ml of assay buffer. The pellets were solubilized with 0.5 ml of NCS (Amersham, Arlington Heights, Ill.), agitated for 45 minutes, and 0.05 ml of glacial acetic acid added. Four ml of OCS (Amersham) was added and the radioactivity measured in a Beckman LS 5801 liquid scintillation counter.

[6] = Overt behavioral effects; details: for overt behavioral effects: ACPC 100-2000, ACPCE 39-195, ACPCM 19-571 mg/kg
[7] = test system: pentylenetetrazole (PTZ)-induced convulsions; assay: PTZ-induced convulsions; format: in vivo, male NIH-Swiss mice
Experimental: as §1

[8] = test system: strychnine-induced convulsions; format: in vivo, male NIH-Swiss mice
Experimental: as §1

[9] = test system: bicuculline-induced convulsions; format: in vivo, male NIH-Swiss mice
Experimental: as §1

[10] = target: T1, strychnine-insensitive glycine receptors (NMDA receptor complex); details: Marvizon et al, 1989, cited from earlier work
[11] = test system: NMDA receptor complex; details: compared with glycine; Marvizon et al, 1989; cited from earlier work
[12] = test system: NMDA-gated cation channels; details: Nadler et al, 1988; cited from earlier work
[13] = test system: strychnine insensitive glycine binding site of the N-methyl-D-aspartate (NMDA) receptor complex; details: Marvizon, 1989; cited from earlier work
[14] = NMDA 125 mg/kg, vehicle injected mice

SMILES: COC(=O)C1(N)CC1 [ACPCM, methyl 1-aminocyclopropanecarboxylate]
- maximum efficacy apparent after injection (time) ([1]; ACPCM 114 mg/kg): 5 to 15 min
- onset and duration of anticonvulsant action relative to ACPC ([1]; ACPCM 114 mg/kg): manifest more rapidly than ACPC but of shorter duration
- ED50 [1]: 46 mg/kg
- dose-response curve shape [1]: "bell-shaped" dose response curve
- fold more potent than parent compound (ACPC) [1]: ~ 5 fold
- Complete protection against NMDA-induced convulsions [1]: neither ester could completely block NMDA-induced convulsions and deaths
- Effect on convulsions induced by NMDA (125) [1]: +
- effect on MES [2]: Neither ACPC (200-2000 mg/kg) nor ACPCM (114-571 mg/kg) had a significant, dose-dependent effect
- Effect on convulsions induced by MES [2]: -
- impairment of performance in rotarod test [3]: no impairment
- % Impairment, Rotarod [3]: 0%
- impairment of performance in hanging (horizontal) wire test [4]: no impairment
- % Impairment, Hanging Wire [4]: 0%
- IC50 [5]: > 40000 nM
- overt behavioral effects [6]: No overt behavioral effects
- overt behavioral effects or neurotoxicity ([6]; mouse, in vivo): no overt behavioral effects or neurotoxicity were observed

SMILES: C1CCc2nnnn2CC1 [pentylenetetrazole, reference compound]
- convulsions, % of mice ([7]; PTZ 80 mg/kg): 100%
- latency to convulsions ([7]; PTZ 80 mg/kg): 1.4 ± 0.2 min

SMILES: O=C1C[C@@H]2OCC=C3CN4CC[C@]56c7ccccc7N1[C@H]5[C@H]2[C@H]3C[C@H]46 [strychnine, reference compound]
- convulsions, % of mice ([8]; strychnine 2 mg/kg): 100%
- latency to convulsions ([8]; strychnine 2 mg/kg): 3.1 ± 0.4 min

SMILES: CCOC(=O)C1(N)CC1 [ACPCE, ethyl l-aminocyclopropanecarboxylate]
- ED50 [1]: 100 mg/kg
- dose-response curve shape [1]: "bell-shaped" dose response curve
- fold more potent than parent compound (ACPC) [1]: ~ 2.3 fold
- Complete protection against NMDA-induced convulsions [1]: neither ester could completely block NMDA-induced convulsions and deaths
- Effect on convulsions induced by NMDA (125) [1]: +
- IC50 [5]: > 40000 nM
- overt behavioral effects [6]: No overt behavioral effects
- overt behavioral effects or neurotoxicity ([6]; mouse, in vivo): no overt behavioral effects or neurotoxicity were observed

SMILES: CN1CCc2cc3c(cc2[C@H]1[C@@H]1OC(=O)c2c1ccc1c2OCO1)OCO3 [bicuculline, reference compound]
- convulsions, % of mice ([9]; bicuculline 6 mg/kg): 100%
- latency to convulsions ([9]; bicuculline 6 mg/kg): 2.1 ± 0.3 min

SMILES: CN[C@H](CC(=O)O)C(=O)O [NMDA, N-methyl-D-aspartate, reference compound]
- convulsions and death, mice affected [1, 14]: all
- latency to convulsions [1, 14]: 4.6 ± 0.4 min

SMILES: NC1(C(=O)O)CC1 [ACPC, 1-aminocyclopropanecarboxylic acid]
- anticonvulsant effect still manifest after (duration) ([1]; ACPC 400 mg/kg): 30 min
- maximum protection against NMDA-induced convulsions ([1]; ACPC 400 mg/kg): 85%
- protection against NMDA-induced convulsions and death (efficacy, time) ([1]; ACPC 400 mg/kg, 15 minutes prior to NMDA): most efficacious
- ED50 [1]: 234 mg/kg
- dose-response curve shape [1]: "bell-shaped" dose-response curve
- Complete protection against NMDA-induced convulsions [1]: inability of ACPC to completely block NMDA-induced convulsions
- Effect on convulsions induced by NMDA (125) [1]: +
- latency to convulsions induced by PTZ ([7]; ACPC 400 mg/kg): not significantly altered
- protection against PTZ-induced convulsions ([7]; ACPC 400 mg/kg): did not afford significant protection
- Effect on convulsions induced by PTZ (80) ([7]; ACPC 400 mg/kg i.p., PTZ 80 mg/kg): -
- latency to convulsions induced by bicuc. ([9]; ACPC 400 mg/kg): not significantly altered
- protection against bicuc.-induced convulsions ([9]; ACPC 400 mg/kg): did not afford significant protection
- Effect on convulsions induced by BICUC. (6) ([9]; ACPC 400 mg/kg i.p., bicuculline 6 mg/kg): -
- latency to convulsions induced by strych. ([8]; ACPC 400 mg/kg): not significantly altered
- protection against strych.-induced convulsions ([8]; ACPC 400 mg/kg): did not afford significant protection
- Effect on convulsions induced by STRYCH. (2) ([8]; ACPC 400 mg/kg i.p., strychnine 2 mg/kg): -
- effect on MES [2]: Neither ACPC (200-2000 mg/kg) nor ACPCM (114-571 mg/kg) had a significant, dose-dependent effect
- Effect on convulsions induced by MES [2]: -
- impairment of performance in rotarod test [3]: no impairment
- % Impairment, Rotarod [3]: 0%
- impairment of performance in hanging (horizontal) wire test [4]: no impairment
- % Impairment, Hanging Wire [4]: 0%
- IC50 ([10]; ACPC, read-out: Inhibition of [^3 H] glycine binding IC50): 38 ± 7 nM
- inhibition of strychnine-insensitive [^3 H]glycine binding (type) [10]: potent, competitive inhibitor
- Ki ([10]; read-out: affinity K1 for strychnine-insensitive glycine receptors in vitro): 32 nM
- enhancement of [3H]MK-801 binding [11]: enhances [3H]MK-801 binding to this supramolecular complex with a lower efficacy than glycine
- enhancement of [^3 H]TCP binding [12]: enhances [^3 H]TCP binding
- partial agonism at strychnine insensitive glycine binding site [13]: potent and selective partial agonist
- overt behavioral effects [6]: No overt behavioral effects
- overt behavioral effects or neurotoxicity ([6]; mouse, in vivo): lack of overt behavioral effects or neuro-toxicity
- therapeutic index versus competitive or non-competitive NMDA receptor antagonists ([6]; mouse, in vivo): greater therapeutic index
